The text below walks through data of patent US7226940B2, “Substituted heterocycles for the treatment of diabetes and other diseases” (Incyte San Diego, Inc., priority 2004, dated 2007).

For one assay, the system named is db/db mutant mice. In words: Oral administration in the early intervention treatment of type 2 diabetes in db/db mutant mice. To be noted: day 12. The class given is in vivo. As for the experimental part:
Five week-old female db/db mutant mice (C57BL/KsJ-db +/+ m; Jackson Labs) were housed in a fixed 12-12-hr artificial light-dark cycle, and maintained on a standard high fat diet (containing at least 11% crude fat) provided ad libitum (Teklad S-2335). Animals were allowed two days to acclimate in this experimental environment prior to the initiation of the study.
Prior to initiation of treatment, the animals were bled from the tail vein (100–200 μL of whole blood) and serum levels of glucose and triglycerides were measured in duplicate (Trinder kits; Sigma, St. Louis, Mo.). Based on these initial measures, animals (not yet hyperglycemic) were sorted into groups with approximately the same average serum glucose levels. Once sorted, the animals were housed six per cage and provided high fat rodent diet ad libitum. • Experiment I: (Compound 1) • Treatment groups (n=6/group): • 1) db/db control (sesame oil) • 2) Compound 1 (0.3 mg/kg; twice daily) • 3) Compound 1 (1 mg/kg; twice daily) • Experiment II: (Compound 32) • Treatment groups (n=6/group): • 1) db/db control (sesame oil) • 2) Compound 32 (0.3 mg/kg; once daily) • 3) Compound 32 (1 mg/kg; once daily) • 4) Compound 32 (3 mg/kg; once daily) • 3) Rosiglitazone (1 mg/kg; only daily)
Drug is prepared by mixing Compound 1 or 32 in sesame oil, and administered to animals in a volume of 5 ml/kg/dose. Drug is administered by oral gavage daily at the beginning (Compound 1 and 32) and end of the artificial dark cycle (Compound 1; 12 hour interval).
To monitor the effect of Compound 1 or 32, animals were bled following a three-hour fast at the end of the dark cycle on days 12 of the treatment period. Fasting serum glucose and triglyceride levels were measured in duplicate. The blood is kept at room temperature to allow coagulation, after which the serum is separated and assayed for glucose and triglyceride levels.

The subject of another assay is ob/ob mutant mice. Nature of the assay: Oral administration in the late intervention treatment of type 2 diabetes in ob/ob mutant mice. The format is in vivo. To be noted: oral gavage 5 mg/kg twice daily, p<0.05 vs control; for fasting serum glucose levels: 1 and 2 weeks of treatment; for fasting serum triglyceride levels: two weeks of treatment. The method, then:
Five week-old male ob/ob mutant mice (C57BL/6J-ob; Jackson Labs) were housed in a fixed 12-12-hr artificial light-dark cycle, and maintained on a standard diet provided ad libitum. Animals were allowed two days to acclimate in this experimental environment prior to the initiation of the study.
Prior to initiation of treatment, the animals were bled from the tail vein (100–200 μL of whole blood) and serum levels of glucose and triglycerides were measured in duplicate (Trinder kits; Sigma, St. Louis, Mo.). Based on these initial measures, hyperglycemic animals were sorted into groups with approximately the same average serum glucose levels. Once sorted, the animals were housed six per cage and provided standard rodent diet ad libitum. • Treatment groups (n=6/group): • 1) ob/ob control (sesame oil) • 2) Compound 1 (5mg/kg twice daily)
Drug is prepared by mixing Compound 1 in sesame oil, and administered to animals in a volume of 3 ml/kg/dose. Drug is administered by oral gavage twice daily at the beginning and end of the artificial dark cycle (12 hour interval).
To monitor the effect of Compound 1, animals were bled following a three-hour fast at the end of the dark cycle on days 7 and 14 of the treatment period. Fasting serum glucose and triglyceride levels were measured in duplicate. The blood is kept at room temperature to allow coagulation, after which the serum is separated and assayed for glucose and triglyceride levels.

The mark [1] stands for this setting: young db/db mice, oral gavage, 0.3 or 1 mg/kg twice daily.
Where [2] appears, read: young db/db mice, oral gavage, 0.3 or 1 mg/kg twice daily, listed as compound 1.
[3] abbreviates: db/db mice, oral gavage, 0.3, 1 or 3 mg/kg once daily, rosiglitazone 1 mg/kg as comparator.
Setting [4] is: db/db mice, oral gavage, 0.3, 1 or 3 mg/kg once daily, rosiglitazone 1 mg/kg as comparator, listed as compound 32.

Consider `COc1ccc(/C=C2\SC(=O)NC2=O)cc1-c1cc2c(cc1C)C(C)(C)CCC2(C)C` [Compound 1, 3-(3,5,5,8,8-Pentamethyl-5,6,7,8-tetrahydro-2-naphthyl)-4-methoxybenzylidene-2,4-thiazolidinedione], for which the “fasting serum glucose levels” value with db/db mutant mice (setting [1]) is “remained well within the normal range”; in the assay on db/db mutant mice (setting [2]) it was “prevent increases”; in the assay with ob/ob mutant mice (5 mg/kg), “significant decrease”; with ob/ob mutant mice (listed as compound 1, 5 mg/kg), “reduce”. The “fasting serum triglyceride levels” value in the assay with db/db mutant mice (setting [1]) was “remained well within the normal range”; in the assay with db/db mutant mice (setting [2]) it was “prevent increases”; in the assay with ob/ob mutant mice (5 mg/kg) it was “significantly reduced”; in the assay with ob/ob mutant mice (listed as compound 1, 5 mg/kg), “reduce”.
On to `Cc1cc2c(cc1-c1cc(/C=C3\SC(=O)NC3=O)ccc1OC(F)(F)F)C(C)(C)CCC2(C)C` [Compound 32, 3-(3,5,5,8,8-Pentamethyl-5,6,7,8-tetrahydro-2-naphthyl)-4-trifluoromethoxybenzylidene-2,4-thiazolidinedione], for which, in the assay on db/db mutant mice (setting [3]), the “fasting serum glucose levels” value was “remained well within the normal range” and the “fasting serum triglyceride levels” value is “remained well within the normal range”. Besides, in the assay with db/db mutant mice (setting [4]), the “fasting serum glucose levels” value is listed as “equally or more potent than rosiglitazone” and the “fasting serum triglyceride levels” value was “equally or more potent than rosiglitazone”.
